Values quoted from earlier work as cited in US20170224756A1, “Antioxidants Against Oxidative Stress During a Stressor Event” (MERIAL INC., priority 2016, published 2017).

How the values were obtained:
[1] = test system: gastric lesions; settings: indomethacin in rats
[2] = test system: endothelial dysfunction; settings: locally administered; human forearms after typhoid vaccination
[3] = test system: oxidative stress; settings: heat-stressed quail

[Se] [Se/DMSO, selenium]
enzymatic antioxidants superoxide dismutase, catalase and glutathione peroxidase [1]: increased
gastric lesions [1]: significantly reduced

O=C1O[C@H]([C@@H](O)CO)C(O)=C1O [ascorbic acid]
endothelial dysfunction, reduced vascular nitric oxide bioavailability and increased oxidative stress [2]: partially reversible

epigallocatechin-3-gallate [EGCG]
heat stress induced oxidative stress [3]: alleviates
